From PubChem BioAssay (NCI)
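Following 48 hours of exposure in 96-well plates, responses at five concentrations were used to interpolate endpoints linearly. GI50 = concentration required for 50% inhibition of growth. TGI: total growth inhibition.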

Experiments:
Experiment in all cases: inhibition of tumour cell growth, NCI panel, 48 h
NCI-H522 lung = tested on: NCI-H522 lung
OVCAR-3 ovarian = tested on: OVCAR-3 ovarian
NCI-H226 lung = tested on: NCI-H226 lung
SF-268 CNS = tested on: SF-268 CNS
K-562 leukemia = tested on: K-562 leukemia
CCRF-CEM leukemia = tested on: CCRF-CEM leukemia
KM12 colon = tested on: KM12 colon
U251 CNS = tested on: U251 CNS
SK-MEL-28 melanoma = tested on: SK-MEL-28 melanoma
NCI-H460 lung = tested on: NCI-H460 lung
MDA-MB-435 = tested on: MDA-MB-435
HCT-15 colon = tested on: HCT-15 colon
BT-549 breast = tested on: BT-549 breast
UO-31 renal = tested on: UO-31 renal
CAKI-1 renal = tested on: CAKI-1 renal
786-0 renal = tested on: 786-0 renal
DU-145 prostate = tested on: DU-145 prostate
SK-MEL-5 melanoma = tested on: SK-MEL-5 melanoma
TK-10 renal = tested on: TK-10 renal
SW-620 colon = tested on: SW-620 colon
OVCAR-5 ovarian = tested on: OVCAR-5 ovarian
HT29 colon = tested on: HT29 colon
IGROV1 ovarian = tested on: IGROV1 ovarian
SR leukemia = tested on: SR leukemia
OVCAR-4 ovarian = tested on: OVCAR-4 ovarian
SNB-19 CNS = tested on: SNB-19 CNS
A549 NSCLC = tested on: A549 NSCLC

Nc1ncc(-c2ccc(C(F)(F)F)cc2)c(NC2CCCCCC2)n1
GI50 (NCI-H522 lung): 27.7 µM | TGI (NCI-H522 lung): > 100 µM | GI50 (OVCAR-3 ovarian): 35.9 µM | TGI (OVCAR-3 ovarian): > 100 µM | GI50 (NCI-H226 lung): 12.9 µM | TGI (NCI-H226 lung): > 100 µM | GI50 (SF-268 CNS): 48.4 µM | TGI (SF-268 CNS): > 100 µM | GI50 (K-562 leukemia): 21 µM | TGI (K-562 leukemia): > 100 µM | GI50 (CCRF-CEM leukemia): 15.4 µM | TGI (CCRF-CEM leukemia): 52.8 µM | GI50 (KM12 colon): 37.2 µM | TGI (KM12 colon): > 100 µM | GI50 (U251 CNS): 20.8 µM | TGI (U251 CNS): 88.9 µM | GI50 (SK-MEL-28 melanoma): 53.6 µM | TGI (SK-MEL-28 melanoma): > 100 µM | GI50 (NCI-H460 lung): 42.7 µM | TGI (NCI-H460 lung): > 100 µM | GI50 (MDA-MB-435): 35 µM | TGI (MDA-MB-435): > 100 µM | GI50 (HCT-15 colon): 38.8 µM | TGI (HCT-15 colon): > 100 µM | GI50 (BT-549 breast): 34.9 µM | TGI (BT-549 breast): > 100 µM | GI50 (UO-31 renal): 13 µM | TGI (UO-31 renal): > 100 µM | GI50 (CAKI-1 renal): 20.9 µM | TGI (CAKI-1 renal): > 100 µM | GI50 (786-0 renal): 32.2 µM | TGI (786-0 renal): > 100 µM | GI50 (DU-145 prostate): 39.9 µM | TGI (DU-145 prostate): > 100 µM | GI50 (SK-MEL-5 melanoma): 12.3 µM | TGI (SK-MEL-5 melanoma): 35 µM | GI50 (TK-10 renal): 54.5 µM | TGI (TK-10 renal): > 100 µM | GI50 (SW-620 colon): 39.3 µM | TGI (SW-620 colon): > 100 µM | GI50 (OVCAR-5 ovarian): 45.6 µM | TGI (OVCAR-5 ovarian): > 100 µM | GI50 (HT29 colon): 40.6 µM | TGI (HT29 colon): > 100 µM | GI50 (IGROV1 ovarian): 19.5 µM | TGI (IGROV1 ovarian): > 100 µM | GI50 (SR leukemia): 13.2 µM | TGI (SR leukemia): 57.2 µM | GI50 (OVCAR-4 ovarian): 16.7 µM | TGI (OVCAR-4 ovarian): > 100 µM | GI50 (SNB-19 CNS): 47.4 µM | TGI (SNB-19 CNS): > 100 µM | GI50 (A549 NSCLC): 16.5 µM | TGI (A549 NSCLC): > 100 µM
